Experimental data as given in publication PMC5369193, “Development and validation of a high-throughput calcium mobilization assay for the orphan receptor GPR88” (Journal of Biomedical Science, 2017).
Entries after “also recorded” stand apart in the source; their conditions may differ. Read-outs that look alike come from different tables or passages of the source.

Tests used:
human GPR88 [1] = biological target: T1, human GPR88 (Homo sapiens, UniProt Q9GZN0); test: Calcium mobilization in CHO-RD-HGA16 (Gαq16) cells transiently transfected with GPR88; type: cell-based; design: host or cells: CHO-RD-HGA16 cells stably expressing Gαq16, transient transfection; details: 10 μM final, compared with Gαq16 mock cells; listed as (1R,2R)-2-PCCA
T1 sequence (Q9GZN0 whole entry): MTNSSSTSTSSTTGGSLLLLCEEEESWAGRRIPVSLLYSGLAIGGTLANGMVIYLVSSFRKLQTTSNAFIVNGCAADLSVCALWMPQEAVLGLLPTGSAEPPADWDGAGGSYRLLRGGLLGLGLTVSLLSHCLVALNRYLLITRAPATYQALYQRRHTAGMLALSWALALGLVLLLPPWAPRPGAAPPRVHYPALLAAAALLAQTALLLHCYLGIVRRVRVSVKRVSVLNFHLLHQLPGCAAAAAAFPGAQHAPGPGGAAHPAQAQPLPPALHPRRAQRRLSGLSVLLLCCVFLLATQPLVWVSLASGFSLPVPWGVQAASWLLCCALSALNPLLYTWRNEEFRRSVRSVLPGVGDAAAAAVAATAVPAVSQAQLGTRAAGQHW

human GPR88 [2] = biological target: T1, human GPR88; test: 96-well calcium mobilization assay in stable PPLS-HA-GPR88-Gαqi5-CHO cells; type: cell-based
P-glycoprotein = system: P-glycoprotein; design: method as in PMID 25754495; details: cited from earlier work
GPR88 [3] = system: GPR88; design: method as in PMID 27499251; details: LANCE Ultra cAMP assay, stable PPLS-HA-GPR88 CHO cells; cited from earlier work
GPR88 [4] = system: GPR88; design: method as in PMID 24793972; details: GloSensor cAMP assay, stable HEK293-GPR88-pGloSensor22F cells; read-out: EC50, inhibition of isoproterenol-stimulated cAMP accumulation; cited from earlier work
human GPR88 [5] = biological target: T1, human GPR88; type: cell-based; details: 10 μM final
human GPR88 [6] = biological target: T1, human GPR88; test: 384-well no-wash FLIPR calcium mobilization assay in PPLS-HA-GPR88-Gαqi5-CHO cells; type: cell-based; details: 10 μM, 2% DMSO, one representative plate
GPR88 [7] = system: GPR88; design: method as in PMID 25690789, PMID 27956039; details: cited from earlier work
GPR88 [8] = system: GPR88; design: method as in PMID 24793972; details: cited from earlier work
[9] = read-out: pEC50 (EC50, nM), NA class (converted), stable PPLS-HA-GPR88-Gαqi5-CHO cells, two independent experiments in duplicate
[10] = stable PPLS-HA-GPR88-Gαqi5-CHO cells

CCCc1ccc(-c2ccc(N(C[C@@H](N)[C@@H](C)CC)C(=O)[C@@H]3C[C@H]3c3ccccn3)cc2)cc1 [Compound 1a, (1R,2R)-2-(pyridin-2-yl)cyclopropanecarboxylic acid ((2S,3S)-2-amino-3-methylpentyl)-(4’-propylbiphenyl-4-yl)amide]
GPR88-specific calcium response in Gαq16 system (human GPR88 [1]): does not elicit a GPR88-specific response; also recorded: did not elicit a GPR88-specific response
decrease of maximum response at 2% final DMSO (human GPR88 [2]; 10 μM final, 2% final DMSO): 1.4 fold
P-glycoprotein substrate (P-glycoprotein): it is a P-glycoprotein substrate
specific response compared to Gαqi5 mock cells (human GPR88 [5]; 48 h after transfection): 2.3 fold
GPR88-specific calcium response in Gαqi5 system (human GPR88 [5]; compared with Gαqi5 mock cells): did elicit a specific response
average signal (human GPR88 [6]): 1830 RFU

CCCc1ccc(-c2ccc(N(C[C@@H](N)[C@@H](C)CC)C(=O)[C@@H]3C[C@H]3c3ccccc3)cc2)cc1 [Compound 1b]
EC50 (human GPR88 [2]): 1260 nM
fold less potent than (1R,2R)-2-PCCA (human GPR88 [2]; EC50 comparison): approximately 2.5 fold

CC[C@H](C)[C@H](N)CN(C(=O)[C@@H]1C[C@H]1c1ccccc1)c1ccc(-c2ccc(C3CCCCC3)cc2)cc1 [Compound 1c]
EC50 (human GPR88 [2]): 794 nM

CC[C@H](C)[C@H](N)CN(C(=O)[C@@H]1C[C@H]1c1ccccc1)c1ccc(-c2ccc(C(N)=O)cc2)cc1 [Compound 1d]
EC50 (human GPR88 [2]; [9]): > 10000 nM
agonist activity in words (human GPR88 [2]; [10]): loss of activity

CCCC(C)COc1ccc([C@H](CN)NC(=O)[C@@H](C)c2ccccc2)cc1 (stereo partly drawn) [Compound 2-AMPP, (2S)-N-((1R)-2-amino-1-(4-(2-methylpentyloxy)phenyl)ethyl)-2-phenylpropanamide]
activation of GPR88 (GPR88 [7]): shown to activate GPR88

CCCc1ccc(-c2ccc(N(C[C@@H](N)[C@@H](C)CC)C(=O)[C@@H]3C[C@H]3c3ccccn3)cc2)cc1 [Compound 2-PCCA]
calcium mobilization in GPR88 cells (GPR88 [8]): does not induce calcium mobilization in GPR88 cells

CCCc1ccc(-c2ccc(N(C[C@@H](N)CC(C)C)C(=O)[C@@H]3C[C@H]3c3ccccc3)cc2)cc1 [Compound 2a]
EC50 (human GPR88 [2]): 1320 nM

CCCc1ccc(-c2ccc(N(C[C@H](N)CC(C)C)C(=O)[C@@H]3C[C@H]3c3ccccc3)cc2)cc1 [Compound 2b]
EC50 (human GPR88 [2]): 2630 nM
loss of potency on changing S- to R-configuration of the amino group (human GPR88 [2]; compared with 2a): 2 fold

CCCc1ccc(-c2ccc(N(CCCC(C)C)C(=O)[C@@H]3C[C@H]3c3ccccc3)cc2)cc1 [Compound 2c]
EC50 (human GPR88 [2]; [9]): > 10000 nM
agonist activity in words (human GPR88 [2]; [10]): completely inactive

CCCc1ccc(-c2ccc(N(C[C@@H](N)[C@@H](C)CC)C(=O)[C@H]3C[C@@H]3c3ccccc3)cc2)cc1 [Compound 3]
EC50 (human GPR88 [2]): > 10000 nM
agonist activity in words (human GPR88 [2]; [10]): inactive
